Data taken from patent publication US8431395B2, “Pluripotent cells from rat and other species” (The University Court of the University of Edinburgh, priority 2006, dated 2013).

Columns and labels:
mouse ES cells = test: Culture of pluripotent (ES) cells with inhibitors to promote self renewal; format: cell-based
Description: Mix DMEM/F12-N2 medium with Neurobasal/B27 medium at the ration of 1:1. The media was used to dilute all compounds and grow the cells.

GSK3 = details: cited from earlier work
3i rat cells = test: Maintenance of undifferentiated rat 3i cells under altered culture conditions; format: cell-based
Description: We investigated the effect of altering the culture conditions on maintenance of the undifferentiated state. […] LIF is not included in culture medium, consistent with the sufficiency of 3i for mouse ES cells. Rat cells transferred from 3i to medium supplemented with serum and LIF or BMP and LIF differentiated into various morphologies and lost expression of Oct4 and Nanog (FIG. 13a). These observations indicate that the 3i rat cells have reduced responsiveness to gp130/Stat3 signalling compared with mouse ES cells^20, 21. This may be a significant contributory factor to previous failures to derive rat ES cells.
Cells cultured without inhibitors differentiated into various morphologies (FIG. 13b). […] These findings are consistent with the hypothesis that blockade of FGF/Erk signaling is the critical requirement to sustain the naïve pluripotent state (Ying et al., submitted).
Recently the derivation of cell lines from post-implantation egg cylinder stage epiblast has been reported in mice and rats^3, 10. […] In contrast the 3i rat cells do contribute to chimaeras. They also express Rex1, Stella (Dppa3) and alkaline phosphatase, markers of ES cells and early epiblast that are absent in EpiSCs. Furthermore 3i rat cells can readily be propagated after dissociation into single cells whereas maintained cell-cell contact appears critical for EpiSCs. […]

Molecule	results as GSK3 inhibitor in culture of pluripotent cells (mouse ES cells)	specificity (GSK3)	fold lower concentration at which fully effective as substitute for SU5402 (mouse ES cells; relative to SU5402)	maintenance / propagation of undifferentiated rat cells (3i rat cells)
Cc1c[nH]c(-c2cnc(NCCNc3ccc(C#N)cn3)nc2-c2ccc(Cl)cc2Cl)n1 [CHIR 99021]	Good results	specific for GSK3		
CCN(CC)CCCCNc1ncc2cc(-c3cc(OC)cc(OC)c3)c(NC(=O)NC(C)(C)C)nc2n1 [PD173074]			about 100 fold	
NC(=O)c1ccc(-c2nc(-c3ccccn3)c(-c3ccc4c(c3)OCO4)[nH]2)cc1 [SB431452]				did not impede propagation
CHIR 98014	Good results	specific for GSK3		
